# Laboratory results published in ChEMBL document CHEMBL1138055, “Tetraoxane antimalarials and their reaction with Fe(II)” (J Med Chem, 2006).
# Legend:
# PBMC [1] = assay: Selectivity index, IC50 for PBMC/IC50 for Plasmodium falciparum W2; assay type: functional
# PBMC [2] = assay: Selectivity index, IC50 for PBMC/IC50 for Plasmodium falciparum D6; assay type: functional
# PBMC [3] = assay: Cytotoxicity against human peripheral blood mononuclear cells; assay type: functional, cell-based
# UO-31 = assay: Antiproliferative activity against human UO31 cell line after 48 hrs; assay type: functional; conditions: Homo sapiens, UO-31, 48 h
# Mus musculus = species: Mus musculus; assay: Intrinsic clearance in mouse liver microsomes; assay type: ADME, Microsome
# EKVX = assay: Antiproliferative activity against human EKVX cell line after 48 hrs; assay type: functional; conditions: Homo sapiens, EKVX, 48 h
# Plasmodium falciparum [4] = system: Plasmodium falciparum
# Description: Antimalarial activity against Plasmodium falciparum D6
# 786-0 = assay: Antiproliferative activity against human 786-0 cell line after 48 hrs; assay type: functional; conditions: 786-0, 48 h
# Plasmodium falciparum [5] = system: Plasmodium falciparum; remark: listed apart in the source
# Description: Antimalarial activity against Plasmodium falciparum TM91C235
# PBMC [6] = assay: Selectivity index, IC50 for PBMC/IC50 for Plasmodium falciparum TM91C235; assay type: functional
# Plasmodium falciparum [7] = system: Plasmodium falciparum; remark: listed apart in the source
# Description: Antimalarial activity against Plasmodium falciparum W2
# LOX IMVI = assay: Antiproliferative activity against human LOX IMVI cell line after 48 hrs; assay type: functional
# [8] = Half life in mouse liver microsomes; assay type: ADME, Microsome
# PBMC [9] = assay: Cytotoxicity against PHA-stimulated human PBMC; assay type: functional, cell-based
# Liver microsomes = assay: Intrinsic clearance in human liver microsomes; assay type: ADME, Microsome
# PBMC [10] = assay: Selectivity index, IC50 for PBMC/LC50 for UO31 cells; assay type: functional
# [11] = Half life in human liver microsomes; assay type: ADME, Microsome
# [12] = read-out: LC50 (the source's name)
compound,measurement,setting,value
CC(=O)O[C@H]1C[C@H]2[C@@H]([C@H](OC(C)=O)C[C@@H]3CC4(CC[C@@]32C)OOC2(CCC(C(=O)Nc3ccccc3)CC2)OO4)[C@@H]2CC[C@H]([C@H](C)CCC(=O)Nc3ccccc3)[C@@]12C (stereo in doubt; 13),Selectivity index,PBMC [1],>18000
same,Selectivity index,PBMC [2],>33000
same,IC50,PBMC [3],> 200000 nM
same,GI50,UO-31,50 nM
same,TGI,UO-31,190 nM
same,CC50,UO-31; [12],510 nM
same,CL,Mus musculus,< 0.6 mL/min/g
same,GI50,EKVX,900 nM
same,LC50,EKVX,> 100000 nM
same,TGI,EKVX,> 100000 nM
same,IC50,Plasmodium falciparum [4],6.2 nM
same,IC90,Plasmodium falciparum [4],11.3 nM
same,GI50,786-0,450 nM
same,LC50,786-0,67900 nM
same,TGI,786-0,14200 nM
same,IC50,Plasmodium falciparum [5],8.1 nM
same,IC90,Plasmodium falciparum [5],19.2 nM
same,Selectivity index,PBMC [6],>25000
same,IC50,Plasmodium falciparum [7],11.4 nM
same,IC90,Plasmodium falciparum [7],20.8 nM
same,GI50,LOX IMVI,370 nM
same,TGI,LOX IMVI,1690 nM
same,CC50,LOX IMVI; [12],7150 nM
same,half-life,[8],> 2 h
same,IC50,PBMC [9],> 200000 nM
same,CL,Liver microsomes,< 0.6 mL/min/g
same,Selectivity index,PBMC [10],>392
same,half-life,[11],> 2 h
